From patent US20230124862A1, “BISMUTH THIOL COMPOUNDS AND COMPOSITIONS AND METHODS OF TREATING MICROBIAL CO-INFECTIONS” (Microbion Corporation, priority 2020, published 2023)
Like-named read-outs stand apart in the source and are kept apart here. Marks after values point to notes of the source that are not given here.

Key:
P. aeruginosa = experiment: Broth microdilution MIC (Example 10); format: cell-based, Pseudomonas aeruginosa; conditions: initial MIC testing
[1] = system: Burkholderia cepacia complex; experiment: Checkerboard FIC/FICI assay; format: cell-based, Burkholderia spp.; conditions: during FIC testing
[2] = system: Burkholderia cepacia complex; format: cell-based, Burkholderia spp.; conditions: initial MIC testing
Candida krusei = experiment: Antifungal broth microdilution (Example 13); format: cell-based; conditions: 50% inhibition
Candida glabrata = experiment: Antifungal broth microdilution (Example 13); format: cell-based; conditions: 50% inhibition
Candida auris = experiment: Antifungal broth microdilution (Example 13); format: cell-based; conditions: 50% inhibition
Aspergillus spp. = experiment: Antifungal broth microdilution (Example 13); format: cell-based, A. niger, A. terreus, A. fumigatus, A. flavus; conditions: minimum effective concentration
[3] = system: vancomycin-intermediate Staphylococcus aureus (VISA); experiment: Broth microdilution MIC (Example 12); format: cell-based; conditions: Staphylococcus aureus, VISA, VISA isolates; read-out: MIC values

CC[C@H](C)C[C@H](C)CCCCCCCCC(=O)N[C@H]1C[C@@H](O)[C@@H](NCCN)NC(=O)[C@@H]2[C@@H](O)CCN2C(=O)[C@H]([C@H](O)CCN)NC(=O)[C@H]([C@H](O)[C@@H](O)c2ccc(O)cc2)NC(=O)[C@@H]2C[C@@H](O)CN2C(=O)[C@H]([C@@H](C)O)NC1=O [CASP]
0.25 µg/mL: MIC2 (Candida krusei; C. krusei ATCC 6258, MICA-I) | MIC2 (Candida krusei; C. krusei MMX 7125, Susceptible) | MIC2 (Candida krusei; C. krusei MMX 7128, Susceptible) | MIC2 (Candida krusei; C. krusei MMX 7141, Susceptible) | MIC2 (Candida krusei; C. krusei MMX 7153, MICA-R) | MIC2 (Candida krusei; C. krusei MMX 7155, Susceptible) | MIC2 (Candida krusei; C. krusei MMX 9878, MICA-I, VORI-I) | MIC2 (Candida auris; C. auris MMX 9868, FLU-R, VORI-R) | MIC2 (Candida auris; C. auris MMX 9869, FLU-R, VORI-R) | MIC2 (Candida auris; C. auris MMX 9870, FLU-R, VORI-R) | MEC (Aspergillus spp.; A. fumigatus ATCC 204305)
0.06 µg/mL: MIC2 (Candida glabrata; C. glabrata MMX 7549, Susceptible) | MEC (Aspergillus spp.; A. flavus ATCC 22546) | MEC (Aspergillus spp.; A. flavus ATCC 204304) | MEC (Aspergillus spp.; A. fumigatus ATCC MYA-3626)
0.12^b μg/mL: MIC2 (Candida auris; C. auris MMX 9863, FLU-R, VORI-R) | MIC2 (Candida auris; C. auris MMX 9866, FLU-R, VORI-R) | MEC (Aspergillus spp.; A. fumigatus MMX 5938, 48 hr only, insufficient growth for 24 hr read) | MEC (Aspergillus spp.; A. terreus MMX 8229, 48 hr only, insufficient growth for 24 hr read)
0.5 µg/mL: MIC2 (Candida glabrata; C. glabrata MMX 7285, CASP-R, MICA-R)
>8 µg/mL: MIC2 (Candida glabrata; C. glabrata MMX 7103, CASP-R, MICA-R) | MIC2 (Candida glabrata; C. glabrata MMX 7307, CASP-R, MICA-R, FLU-R)
0.12 µg/mL: MIC2 (Candida krusei; C. krusei ATCC 96685, Susceptible) | MIC2 (Candida krusei; C. krusei MMX 7563, Susceptible) | MIC2 (Candida glabrata; C. glabrata ATCC 90030, Susceptible) | MIC2 (Candida glabrata; C. glabrata ATCC MYA-2950, Susceptible) | MIC2 (Candida glabrata; C. glabrata MMX 7087, Susceptible) | MIC2 (Candida glabrata; C. glabrata MMX 7093, FLU-R) | MIC2 (Candida glabrata; C. glabrata MMX 7101, FLU-R) | MIC2 (Candida glabrata; C. glabrata MMX 7111, Susceptible) | MIC2 (Candida auris; C. auris MMX 9862, Susceptible) | MIC2 (Candida auris; C. auris MMX 9867, FLU-R, VORI-R) | MEC (Aspergillus spp.; A. fumigatus MMX 5934) | MEC (Aspergillus spp.; A. fumigatus MMX 5939)
0.012 µg/mL: MIC2 (Candida krusei; C. krusei ATCC 14243, Susceptible)
0.25^b μg/mL: MIC2 (Candida auris; C. auris MMX 9864, FLU-R, VORI-R) | MIC2 (Candida auris; C. auris MMX 9865, FLU-R, VORI-R) | MIC2 (Candida auris; C. auris MMX 9871, Susceptible)
0.06^b μg/mL: MEC (Aspergillus spp.; A. niger ATCC 29508, 48 hr only, insufficient growth for 24 hr read)
0.03 µg/mL: MEC (Aspergillus spp.; A. flavus MMX 7935)

CC(=O)NC[C@H]1CN(c2ccc(N3CCOCC3)c(F)c2)C(=O)O1 [linezolid, reference compound]
< 4 mg/L: MIC [3]
